The values that follow come from patent publication US20170239201A1, “GLYCOLIC ACID ENHANCES SPERM MOBILITY” (MAX-PLANCK-GESELLSCHAT ZUR FORDERUNG DER WISSENSCHAFTEN E.V., priority 2014, published 2017).

The subject of data set [1] is mouse sperm. Put plainly: Mouse sperm motility and progressivity (CASA system, Hamilton-Thorne). The conditions noted are these: for difference in treated mouse sperm compared to controls: motility/progressivity. The data set is classed as cell-based. As for the experimental part:
Extract epididymis and open them in CPA medium (18% Raffinose and 3% Low fat milk powder). Let spermatozoids swim out for 5 min at room temperature.
For each condition, take 4 μl of mouse sperm in CPA and place in 196 μl of HTF medium from the incubator (at 37° C.). Let it incubate 5 min. in the 37° C. incubator, add substances to the HTF medium (see formulation below) and incubate for different times.
At each time point, fill a Leja-Slide with 25 μl of the HTF buffer containing the diluted sperm and place in the sperm counting machine (Hamilton-Thorne, USA). The machine takes 10 pictures per samples and analyses the different parameters (motility, progressivity,etc. . . . ). Sperm motility analysis was done blindly. Glycolic acid and […] were given to the technician from the facility as Substance 1 and Substance 2, only later did […] get to know which belong to what compound.
(§1) The examples tested the effect of 10 to 30 mM of glycolic acid and D-lactate on mouse sperm motility and progressivity or on bull motility. For this, epididymic mouse sperm from two strains (WT and DJ-1) or ejaculated frozen bull sperm was obtained. Sperm from each individual was divided and treated either with glycolic acid or with the vehicle for up to 90 minutes. Mouse sperm motility and progressivity was determined with the help of an automatized machine (CASA system, Hamilton-Thorne Research, http://www.hamiltonthorne.com/index.php/products/casa-products/sperm-analysis-systems-research) that uses high frequency photo images and image analysis to analyze these parameters. Frozen ejaculated bull sperm motility was assessed by an experienced technician. Mouse sperm from WT and DJ-1 mice was divided by the software into motile and non-motile sperm according to standardized parameters and results are given as percentages of the total population identified as motile sperm (FIG. 1-4). Sperm progressivity alone was analyzed only on the mouse sperm, as only the software from the CASA system is sensitive enough to make this analysis and this machine can only analyze mouse sperm. Bull sperm was divided into progressive motile, motile (the sum of progressive motile and motile on the spot) and the rest (FIGS. 5, 6 and 7).

Data set [2] deals with human sperm. Put plainly: Human sperm motility, fresh and defrosted sperm. It is filed as cell-based. The conditions noted are these: 30 and 60 mM, significant (p<0.05) over whole experiment. As for the experimental part: Human sperm was collected from donors after ejaculation and used on the same day. Frozen human sperm was defrosted in a warm bath before starting the experiments. The regional ethical committee approved sample collection and use of human sperm. Both fresh and frozen human sperm were centrifuged, the supernatant was removed and the sperms were resuspended in HTF-like medium alone or with glycolic acid. Sperms were incubated with the 30 and 60 mM glycolic acid for 10 min before the measurements began. Measurements were performed by an experienced technician from the urology department.
(§2) This enhancement can be observed in human sperm, both defrosted and fresh, and defrosted bull sperm. Two-way ANOVA analysis was used (much more restrictive than a t-Test). * means p<0.05, **p<0.01, ***p<0.001 and […]. […] Both sperm motility and mitochondrial measurements are normalized to a control at time-point 0.

For data set [3], the system named is sperm mitochondrial membrane potential. The experiment in a line: Mitochondrial membrane potential of sperm (JC-1 and FACS sorting). The conditions noted are these: JC-1, FACS; normalized to control at time-point 0; FIG. 8. It is filed as cell-based.
Source text: as §2

The test system of data set [4] is bull sperm. Put plainly: Bull sperm motility and progressive motility, defrosted sperm, assessed by technician. The data set is classed as cell-based. As for the experimental part: Frozen bull sperm was defrosted in a warm bath and centrifuged. The supernatant was removed and the sperms were resuspended in HTF-like medium alone or with glycolic acid. Sperms were incubated with the 10, 20 and 30 mM glycolic acid for 10 min. before the measurements began. Measurements were performed by an experienced technician from the urology department.
as §1

For data set [5] the following is noted: estimated; cited from earlier work.
Setting [6] is: 10 mM, 30 minutes after application, average stated for mouse and bull sperm.

For `C[C@@H](O)C(=O)O` [D-lactate, reference compound], the “difference in treated mouse sperm compared to controls” value in data set [1] is given as “not”.
`O=C(O)CO` [Glycolic acid, 2-hydroxyethanoic acid]: the “sperm motility (FIG. 8), normalized to control at time-point 0” value was “enhances sperm motility” in data set [2] and “enhances sperm motility” in data set [4] (defrosted bull sperm, significant (p<0.05) over whole experiment). The “increase in sperm motility (percentage of motile spermatozoids)” value in data set [1] (setting [6]) and in data set [4] (setting [6]) was 19% throughout. Also, the “increase in sperm progressivity (percentage of motile spermatozoids that move forward)” value in data set [1] (setting [6]) and in data set [4] (setting [6]) was 28% each time. The “time over which the enhancement is sustained” value in data set [1] (both species) and in data set [4] (both species) was “up to 90 min” throughout. Besides, the “difference in treated mouse sperm compared to controls” value in data set [1] was “significance difference”. Further, the mitochondrial membrane potential result in data set [3] is “did not increase”. In addition, in data set [4] (20 and 30 mM compared to 10 mM glycolic acid), the “bull sperm motility and progressivity at higher concentrations” value is on record as “further increase”. Besides, the “sperm mobility, in particular sperm progressivity, at higher concentrations” value in data set [4] (concentrations up to 60 mM, data not shown) is “increase”.
Take `OCCOCCO` [diethylene glycol]: in data set [5], the minimum toxic dose is reported as 0.14 mg glycolic acid per kg of body weight.
